Measurements from publication PMC7037731, “Synthesis, Anticancer Activity, and Preliminary Pharmacokinetic Evaluation of 4,4-Disubstituted Curcuminoid 2,2-bis(Hydroxymethyl)Propionate Derivatives” (Molecules, 2020).
Converted amounts (≈) assume the structure as drawn.

Columns and labels:
[1] = Solubility in aqueous dosing vehicle; type: physicochemical; conditions: aqueous with cosolvent or surfactant or cyclodextrin, 5% ethanol, 10% Tween 80, 85% saline, read-out: maximum solubility in aqueous vehicle
Excerpt: Subsequently, the latter would be converted into glucuronide 22 and sulfate 23 through the phase II metabolism conjugation of hydrogenated products 18, 19, 20, and 21 via the phase I metabolic pathway (Scheme 6). To verify our assumptions, the preliminary pharmacokinetic evaluation of 2 was executed.

[2] = test system: HCT-116 colon tumor xenograft; test: In vivo antitumor activity, HCT-116 colon tumor xenograft bearing nude mice; set-up: species or system nu/nu mice; conditions: 30 days
Experimental: (§1) The therapeutic effect of 2 was evaluated on HCT-116 colon tumor xenograft bearing nude mice. The oral administration of 2 at doses of 50, 100, or 150 mg/kg bw per day were performed after tumors reached approximately 100 mm^3 and continued for 30 consecutive days. 5-Fluorouracil treatment (30 mg/kg bw, i.p., QOD) was used as a positive control. […] There was a clear dose- and time-dependent inhibitory effect on tumor size in the other two groups, in which at 50 and 150 mg/kg doses the volume of the HCT-116 colon tumor was reduced to 73% and 40% of the control, respectively (Figure 2). The body weight of the mice was recorded prior to dosing every 3 d, and the average body weight of each group is depicted in Figure 3. Otherwise, they were monitored for visible signs of toxicity and behavioral changes 1 h after each administration.
Male nu/nu mice (5 weeks old) from National Laboratory Animal Center (Taipei, Taiwan) were maintained under the procedures and guidelines provided by the Institutional Animal Care and Use Committee of the National Health Research Institutes (Taipei, Taiwan). All experiments were supervised under the Institutional Animal Care and Use Committee, China Medical University, Taichung, Taiwan with a protocol number ([…]-2018-278). HCT-116 colon cancer cells (5 × 10^6 cells per mouse) were suspended in 0.1 mL of Matrigel solution (50% v/v Matrigel in PBS) and inoculated into the mammary fat pads of the mice. When the tumor size reached 100 mm^3, the tumor-bearing mice were randomly divided into four groups for treating with vehicle (5% ethanol and 10% tween 80 in 85% saline, 0.1 mL) and 2 (p.o. 50, 100 and 150 mg/kg/day body weight) respectively. Compounds was administered via oral route daily for 30 days. 5-Fluorouracil-treated group (i.p. 30 mg/kg) is the positive control. Tumor size and mouse body weight were measured once every 3 days, and tumor volume (mm^3) was calculated using the equation: length × (width)^2 × 0.5. At the end of experiments, mice were sacrificed.

[3] = Visible signs of toxicity and behavioral changes in xenograft mice; type: in vivo; conditions: 50, 100, 150 mg/kg p.o. daily, 30 days, vs control groups
Experimental: as §1
Male nu/nu mice (5 weeks old) from National Laboratory Animal Center (Taipei, Taiwan) were maintained under the procedures and guidelines provided by the Institutional Animal Care and Use Committee of the National Health Research Institutes (Taipei, Taiwan). […] Tumor size and mouse body weight were measured once every 3 days, and tumor volume (mm^3) was calculated using the equation: length × (width)^2 × 0.5. […]

MDA-MB-231 [4] = test: MTT anti-proliferative assay, MDA-MB-231; type: cell-based; conditions: Homo sapiens, 48 h treatment, MTT, mean ± SD of at least three experiments, read-out: IC50 (M)/ 48 h MDA-MB-231
Experimental: (§2) These compounds, along with all newly synthesized compounds, were screened for anti-proliferative activity against the same TNBC and colon cancer cell lines.
(§3) Cell viability was evaluated by measuring the reduction in MTT to yield blue formazan. Cells were cultured in 96-well plates, allowed to attach overnight, and then treated with compounds. After treatment, MTT solution (1 mg/mL) was added to each well, and plates were incubated for another 2 h. Medium was removed, blue formazan was dissolved in DMSO, and the absorbance was read at 570 nm by Multiskan Go spectrophotometer (Thermo Scientific, Madison, WI, USA).

[5] = Preliminary pharmacokinetic evaluation of 2 in rat (LC-MS of serum); type: in vivo, Sprague-Dawley rats; conditions: for time of maximum blood content: LC signal in serum
Experimental: Male Sparague-Dawley rat (420 g) from National Laboratory Animal Center, Taipei, Taiwan were maintained under the regulations of the Institutional Animal Care and Use Committee of the National Health Research Institutes, Taiwan. The animal studies were supervised under the Institutional Animal Care and Use Committee, China Medical University, Taichung, Taiwan with a protocol number ([…]-2018-278). Rat was fasted for 16 h before dosing. Compound 2 was dissolved in aqueous solution (5% ethanol and 10% Tween80 in 85% saline) and administrated via oral gavage at a dosage of 100 mg/kg. Blood samples were collected at selected time points (5, 10, 20, 30, 60, 120, 240, 360, 480 min) post dose and centrifuged at 10,000× g for 15 min to provide serum samples, which were stored at −80 °C until subsequent sample extraction.
Methods for the preparation of 2, 2m, 18, 19, 20 and 21 serum sample are delineated as follows. 50 μL of acetate buffer (pH 5.0), 50 μL of ascorbic acid (200 mg/mL), and 50 μL of 0.1 N HCl solution was added into 100 μL of serum which was collected at different time points). The resulting mixture was partitioned with 250 μL of ethyl acetate (containing 5.0 μg/mL of butyl paraben as the internal standard). After centrifuging at 10,000× g for 15 min, the upper organic layer was separated and dried under nitrogen gas to provide the crude sample, which was diluted with an appropriate volume of acetonitrile for LC-MS analysis.
The amount of 22 and 23 were analyzed by the serum samples before and after treatment with enzyme solution. The procedure for enzyme treatment is shown as follows. 100 μL of serum was treated with enzyme solution (50 μL; containing 1000 units/mL of sulfatase and 39861 units/mL of β-glucuronidase in pH 5.0 acetate buffer), 50 μL of 0.1 N HCl solution and 50 μL of ascorbic acid (200 mg/mL) in the light protected tubes at 37 °C. For optimal hydrolysis efficiency, the incubation time was decided as 2 h based on a previous study. The mixture was then partitioned with 250 μL of ethyl acetate (containing 5.0 μg/mL of butyl paraben as the internal standard). After centrifuging at 10,000× g for 15 min, the upper organic layer was separated and dried under nitrogen gas to provide the crude sample, which was diluted with an appropriate volume of acetonitrile for LC analysis.
All samples obtained from in vivo pharmacokinetic studies were assayed using LC-MS for the analysis of 2 and the corresponding metabolites. The Waters ACQUITY UPLC I-Class system (Waters Corp., Milford, MA, USA) was utilized. System control and all of the mass spectrometry data were acquired and analyzed using UNIFI software (Waters Corp.). For sample separation, the LC was equipped with an Inertsil ph-3 (50 × 2.1 mm, 2 μm particle size) RPLC column (GL Sciences Inc. Tokyo, Japan) in which the column temperature was held at 35 °C, injection volume was 7.5 μL, and the flow rate of the mobile phase was 200 μL/min. The elution started from 50% mobile phase A (ultrapure water + 0.1% formic acid) and 50% mobile phase B (100% methanol + 0.1% formic acid), held at 50% B for 0.5 min, raised to 95% B in 5.5 min, held at 95% B for 1 min, and then lowered to 50% B in 1 min. Before sample injection, the column was equilibrated by pumping 50% B for 4 min. The analysis of target compounds for all samples was performed by using a Waters Vion IMS QTof mass spectrometer. Data were acquired in the electrospray ionization (ESI) positive ion MS^E mode with range of m/z 100–1000 and 0.5 s scan time. Parameters were set as capillary voltage of 2.5 kV, source temperature of 100 °C, desolvation temperature at 250 °C, cone gas maintained at 10 L/h, desolvation gas maintained at 600 L/h. The acquired m/z and isotope pattern were processed by UNIFI software to illustrate chromatogram, and the amounts of compound was calculated with the integrated peak area of signals.

HCT-116 = test: MTT anti-proliferative assay, HCT-116; type: cell-based; conditions: Homo sapiens, 48 h treatment, MTT, mean ± SD of at least three experiments, read-out: IC50 (M)/ 48 h HCT-116
Experimental: as §2, §3

[6] = Chemical stability on storage; type: physicochemical; conditions: storage at 4 °C; DMSO-d6 1 week at room temperature
Excerpt: The low stability of 9 may have been due to self- or cross-hydrolysis, such that the two hydroxyl groups at the C-4 alkyl chains cleaved the ester linkage of the 2,2-bis(hydroxymethyl)propionate group. […] Therefore, we modified the hydroxymethyl group of 9 and were able to produce compounds 10 and 11. To prepare 10, compound 9 was acetylated with acetyl chloride in the presence of Et3N, and the resulting di-acetylation intermediate was hydrolyzed by hydrochloric acid. Compound 11 was obtained with an overall yield of 5% following a similar three-step reaction modified for methylation. The stability of these two products at room temperature may have been due to the conversion of the labile hydroxyl groups of the C-4 alkyl chains of 10 and 11 into non-nucleophilic […] groups, respectively, which prevented degradation.

MDA-MB-231 [7] = conditions: MDA-MB-231 in vitro and in vivo; cited from earlier work

Row | IC50 (MDA-MB-231 [4]) | IC50 (HCT-116) | chemical stability [6] | melting point | time from which the metabolite emerged in blood ([5]; after oral 2 at 100 mg/kg) | Compound | solubility [1] | tumor volume as % of the control ([2]; 50 mg/kg p.o. daily) | tumor volume reduction ([2]; 50 mg/kg p.o. daily, vs control) | tumor volume reduction / tumor inhibition ratio ([2]; 100 mg/kg p.o. daily, vs control) | tumor volume as % of the control ([2]; 150 mg/kg p.o. daily) | tumor volume reduction ([2]; 150 mg/kg p.o. daily, vs control) | adverse effects (visible signs of toxicity, behavioral changes) [3] | time of second highest blood content ([5]; after oral 2 at 100 mg/kg) | time of third highest blood content ([5]; after oral 2 at 100 mg/kg) | time of maximum blood content ([5]; after oral 2 at 100 mg/kg) | plasma stability compared to curcumin ([5]; oral 100 mg/kg) | potency relative to curcumin (times) (MDA-MB-231 [7])
1 | > 0.0001 M | > 0.0001 M | unstable | – | – | COc1cc(/C=C/C(=O)C(CO)(CO)C(=O)/C=C/c2ccc(OC(=O)C(C)(CO)CO)c(OC)c2)ccc1OC(=O)C(C)(CO)CO [Compound 9, [(1E,6E)-4,4-bis(Hydroxymethyl)-3,5-dioxohepta-1,6-diene-1,7-diyl]bis(2-methoxy-4,1-phenylene) bis[3-hydroxy-2-(hydroxymethyl)-2-methylpropanoate]] | – | – | – | – | – | – | – | – | – | – | – | –
2 | 3.06e-06 ± 1.8e-07 M | 6.25e-06 ± 6e-07 M | – | – | – | COc1cc(/C=C/C(=O)/C=C(O)/C=C/c2ccc(OC(=O)C(C)(CO)CO)c(OC)c2)ccc1OC(=O)C(C)(CO)CO [Compound 1, curcumin di-O-2,2-bis(hydroxymethyl)propionate] | – | – | – | – | – | – | – | – | – | – | – | 8 to 10
3 | 4.17e-06 ± 1.5e-07 M | 2.17e-06 ± 1.6e-07 M | – | 104 to 106 °C | 10 min | COc1cc(/C=C/C(=O)C(C)(C)C(=O)/C=C/c2ccc(O)c(OC)c2)ccc1O [Compound 2m, (1E,6E)-1,7-bis(4-Hydroxy-3-methoxyphenyl)-4,4-dimethylhepta-1,6-diene-3,5-dione] | – | – | – | – | – | – | – | – | – | 120 min | – | –

Row | Compound | IC50 (MDA-MB-231 [4]) | IC50 (HCT-116) | chemical stability [6] | melting point | time from which the metabolite emerged in blood ([5]; after oral 2 at 100 mg/kg) | solubility [1] | tumor volume as % of the control ([2]; 50 mg/kg p.o. daily) | tumor volume reduction ([2]; 50 mg/kg p.o. daily, vs control) | tumor volume reduction / tumor inhibition ratio ([2]; 100 mg/kg p.o. daily, vs control) | tumor volume as % of the control ([2]; 150 mg/kg p.o. daily) | tumor volume reduction ([2]; 150 mg/kg p.o. daily, vs control) | adverse effects (visible signs of toxicity, behavioral changes) [3] | time of second highest blood content ([5]; after oral 2 at 100 mg/kg) | time of third highest blood content ([5]; after oral 2 at 100 mg/kg) | time of maximum blood content ([5]; after oral 2 at 100 mg/kg) | plasma stability compared to curcumin ([5]; oral 100 mg/kg) | potency relative to curcumin (times) (MDA-MB-231 [7])
4 | COc1cc(/C=C/C(=O)C(C)(C)C(=O)/C=C/c2ccc(OC(=O)C(C)(CO)CO)c(OC)c2)ccc1OC(=O)C(C)(CO)CO [Compound 2] | 2.25e-06 ± 1e-07 M | 3.1e-06 ± 2.9e-07 M | – | – | – | ~200 mg/mL (≈ 318 mM) | 73% | 27% | 45% | 40% | 60% | No obvious adverse effects | 120 min | 360 min | 20 min | superior plasma stability | –
